Data: patent US11116757B2 (priority 2015, dated 2021)
Read-outs that look alike come from different tables or passages of the source.

Molecular target: DCN1-UBC12 interaction (Homo sapiens (Human), UniProt Q96GG9)
Assay: biochemical
Type: binding
[1] = Table 6, commercial compounds, read-out: TR-FRET IC50
[2] = Table 7, commercial compounds, read-out: TR-FRET IC50
[3] = Table 4, commercial compounds, read-out: TR-FRET IC50

DCN1-UBC12 interaction, sequence (Q96GG9 60-248 limits assumed): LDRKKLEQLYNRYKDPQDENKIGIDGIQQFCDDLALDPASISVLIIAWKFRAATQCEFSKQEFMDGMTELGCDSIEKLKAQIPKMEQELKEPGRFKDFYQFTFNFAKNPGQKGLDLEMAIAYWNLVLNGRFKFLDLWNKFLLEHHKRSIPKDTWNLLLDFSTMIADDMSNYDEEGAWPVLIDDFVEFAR

| Compound | IC50 (read-out: TR-FRET IC50) | other results |
| --- | --- | --- |
| CCCC(C)N1CCC(N(Cc2cccnc2)C(=O)Nc2ccc(F)c(C(F)(F)F)c2)CC1 (centres unmarked) [A55] | 0.303 µM |  |
| CCCC(C)N1CCC(N(Cc2ccccc2)C(=O)Nc2ccc(C(F)(F)F)cc2[NH2+][O-])CC1 (centres unmarked) [A174] | 13.2 µM |  |
| Cc1cnc(-n2ncc(C(=O)N3CCN(C(C)C)CC3)c2C2CC2)nc1-c1cccs1 [E40] |  | IC50 [1]: > 67.6 µM |
| CCCC(C)N1CCC(N(Cc2ccccc2)C(=O)Nc2ccc(Br)cc2Cl)CC1 (centres unmarked) [A111] | 2.24 µM |  |
| CCCC(C)N1CCC(N(Cc2ccccc2)C(=O)Nc2cc(Cl)c(O)c(Cl)c2)CC1 (centres unmarked) [A260] | > 62.5 µM |  |
| COc1cc(C(=O)N2CCC(c3nc4ccccc4s3)CC2)cc(OC)c1OC [D2] | 8.53 µM |  |
| Cc1ccc(C(=O)N2CCC(c3nc4ccccc4s3)CC2)cc1 [D3] | 14.7 µM |  |
| CCCC(C)N1CCC(N(Cc2ccccc2)C(=O)Nc2ccc(C(F)(F)F)nc2C)CC1 (centres unmarked) [A178] |  | IC50 (TR-FRET IC50): 15.8 µM |
| CCC(C)CN1CCC(N(Cc2ccccc2)C(=O)Nc2cc(F)cc(C(F)(F)F)c2)CC1 (centres unmarked) [A121] | 1 µM |  |
| COc1cc(CN2CCC(NC(=O)Nc3cccc(C)c3)CC2)cc(OC)c1OC [B12] | 29.3 µM |  |
| Cc1ccc(NC(=O)NC2CCN(Cc3ccccc3)CC2)cc1C [B63] | > 67.6 µM |  |
| 1-Benzyl-1-(1-Hexylpiperidin-4-yl)-3-(3-(Trifluoromethyl)Phenyl)Urea [A289] | > 73.2 µM |  |
| CN1CCN(C(=O)c2cnn(-c3nccc(-c4cccs4)n3)c2C2CC2)CC1 [E33] |  | IC50 [1]: > 67.6 µM |
| COc1cccc(C2c3c(C)nn(C)c3NC(=O)C2NC(=O)c2ccc(OC)c(OC)c2)c1 (centres unmarked) [F21] |  | IC50 [2]: > 67.6 µM |
| COc1ccc(C(=O)N2CCC(C(=O)Nc3ccccc3C)CC2)c2ccccc12 [C62] |  | IC50 [3]: > 67.6 µM |
| 1-Benzyl-1-(1-(Cyclopropylmethyl)Piperidin-4-yl)-3-(3-(Trifluoromethyl)Phenyl)Urea [A30] | 0.178 µM |  |
| CSc1ccc(C2c3c(C)nn(C)c3NC(=O)C2NC(=O)c2cccc(C)c2)cc1 (centres unmarked) [F6] |  | IC50 [2]: 39.5 µM |
| CCCC(C)N1CCC(N(Cc2ccccc2)C(=O)Nc2ccc(F)c(C(F)(F)F)c2)CC1 (centres unmarked) [A57] |  | IC50 (TR-FRET IC50): 0.315 µM |
| CC(C1CCC1)N1CCC(N(Cc2ccccc2)C(=O)Nc2cc(F)cc(C(F)(F)F)c2)CC1 (centres unmarked) [A118] | 0.143 µM |  |
| CCN1CCC(N(Cc2ccc3c(c2)OCO3)C(=O)Nc2cccc(Br)c2)CC1 [B4] | 4.06 µM |  |
| O=C(CN1CCN(c2ccccc2)CC1)Nc1cccc(C(F)(F)F)c1 [B37] | > 60.6 µM |  |
| Cc1cccc(NC(=O)NC2CCN(C(=O)c3ccccc3)CC2)c1 [B111] | > 73.2 µM |  |
| O=C(c1cccc(Br)c1)N1CCC(c2nc3cc(Cl)ccc3s2)CC1 [D18] | > 60.8 µM |  |

| Compound | IC50 (read-out: TR-FRET IC50) | other results |
| --- | --- | --- |
| O=C(Nc1cccc(Cl)c1)NC1CCN(Cc2ccccc2)CC1 [B110] | > 73.1 µM |  |
| CC(C1CCCCC1)N1CCC(N(Cc2ccccc2)C(=O)Nc2cc(F)cc(C(F)(F)F)c2)CC1 (centres unmarked) [A125] | 1.77 µM |  |
| CCCC(C)N1CCC(N(Cc2ccccc2)C(=O)Nc2c(OC)cccc2OC)CC1 (centres unmarked) [A299] | > 85.7 µM |  |
| CCOc1ccc(NC(=O)C2CCN(C(=O)c3ccccc3Cl)CC2)cc1 [C48] |  | IC50 [3]: > 67.6 µM |
| Cn1c(CN2CCC(N(Cc3ccccc3)C(=O)Nc3cc(F)cc(C(F)(F)F)c3)CC2)nc2ccccc21 [A203] | > 20.2 µM |  |
| CCCC(C)N1CCC(N(Cc2ccccc2)C(=O)Nc2cccc(F)c2C)CC1 (centres unmarked) [A151] | 5.66 µM |  |
| CCCC(C)N1CCC(N(Cc2ccccc2)C(=O)Nc2cc(F)cc(Cl)c2)CC1 (centres unmarked) [A67] | 0.482 µM |  |
| CCc1ccc(NC(=O)NC2CCN(C(C)C)CC2)cc1 [B62] | > 67.6 µM |  |
| O=C(Nc1cccc(C(F)(F)F)c1)C1CCN(C(=O)c2ccco2)CC1 [C68] |  | IC50 [3]: > 75.7 µM |
| CC(=O)N1CCC(N(Cc2ccco2)C(=O)Nc2ccc(Br)c(C)c2)CC1 [B18] | 64.1 µM |  |
| CC1CN(Cc2ccccc2)CCC1N(C)C(=O)Nc1cccc2cnccc12 (centres unmarked) [B23] | > 113 µM |  |
| CSc1cccc(NC(=O)C2CCN(C(=O)c3ccccc3C)CC2)c1 [C5] |  | IC50 [3]: 30.1 µM |
| C=CC(=O)NCCCN(C(=O)Nc1cccc(C(F)(F)F)c1)C1CCN(C(C)CCC)CC1 (centres unmarked) [drawing 834] | 3.33 µM |  |
| CCCC(C)N1CCC(N(Cc2ccccc2)C(=O)Nc2cccc(Cl)c2Cl)CC1 (centres unmarked) [A103] | 1.74 µM |  |
| CCCC(C)N1CCC(N(Cc2ccccc2)C(=O)Nc2ccc(Cl)cc2F)CC1 (centres unmarked) [A91] | 1.19 µM |  |
| O=C(Nc1ccc(Cl)c(C(F)(F)F)c1)C1CCN(C(=O)c2ccc(F)cc2)CC1 [C20] |  | IC50 [3]: > 67.6 µM |
| Cc1ccc(C(=O)N2CCC(C(=O)Nc3ccc(Cl)c(C(F)(F)F)c3)CC2)cc1 [C26] |  | IC50 [3]: > 67.6 µM |
| CCN1CCN(C(=O)c2cnn(-c3ncc(C)c(-c4cccs4)n3)c2C2CC2)CC1 [E44] |  | IC50 [1]: > 67.6 µM |
| CCCC(C)N1CCC(N(Cc2ccccc2)C(=O)Nc2ccc(O)cc2C)CC1 (centres unmarked) [A115] | 2.36 µM |  |
| CCC1CN(C(=O)N2CCC(C(=O)Nc3cccc(OC)c3)CC2)c2ccccc2O1 (centres unmarked) [C54] |  | IC50 [3]: > 67.6 µM |
| O=C(Nc1cccc(Br)c1)C1CCN(C(=O)c2cccc(Cl)c2)CC1 [C3] |  | IC50 [3]: 22.4 µM |
| CCCCN1CCC(N(Cc2ccccc2)C(=O)Nc2ccc(OC)c(Cl)c2)CC1 [A287] | > 72.5 µM |  |
| COCCC(=O)N1CCC(C(=O)Nc2ccc(-c3cc4ccccc4[nH]3)cc2)CC1 [C45] |  | IC50 [3]: > 67.6 µM |

| Compound | IC50 (read-out: TR-FRET IC50) | other results |
| --- | --- | --- |
| CCc1cccc(C)c1NC(=O)C1CCN(C(=O)c2ccccc2Cl)CC1 [C37] |  | IC50 [3]: > 67.6 µM |
| O=C(c1ccccc1Br)N1CCC(c2nc3ccccc3s2)CC1 [D8] | 19.8 µM |  |
| COc1cc(C(=O)N2CCC(c3nc4ccccc4s3)CC2)cc(OC)c1Br [D1] | 2.31 µM |  |
| CCOC(=O)N1CCN(C(=O)c2cnn(-c3ncc(C)c(-c4cccs4)n3)c2C)CC1 [E12] |  | IC50 [1]: 28.3 µM |
| O=C(Nc1cc(F)cc(C(F)(F)F)c1)N(Cc1ccccc1)C1CCN(Cc2cc[nH]n2)CC1 [A213] | > 22.5 µM |  |
| N#Cc1cccc(CN2CCC(N(Cc3ccccc3)C(=O)Nc3cc(F)cc(C(F)(F)F)c3)CC2)c1 [A230] | > 28.7 µM |  |
| CCCC(C)N1CCC(N(Cc2ccccc2)C(=O)Nc2ccc(F)cc2Br)CC1 (centres unmarked) [A302] | > 86.9 µM |  |
| CCN1CCC(N(Cc2ccco2)C(=O)Nc2ccc(C)c(Cl)c2)CC1 [B6] | 6.85 µM |  |
| O=C(Nc1cc(F)cc(C(F)(F)F)c1)N(Cc1ccccc1)C1CCN(Cc2cccc(Oc3ccccc3)c2)CC1 [A217] | > 23.9 µM |  |
| Cc1cnc(-n2ncc(C(=O)N3CCN(C(C)C)CC3)c2C)nc1-c1cccs1 [E35] |  | IC50 [1]: > 67.6 µM |
| CCCCN1CCC(N(Cc2ccccc2)C(=O)Nc2cccc([N+](=O)[O-])c2)CC1 [A104] | 1.85 µM |  |
| CCCCN1C(C)CC(N(Cc2ccccc2)C(=O)Nc2cccc(C(F)(F)F)c2)CC1C (centres unmarked) [A71] | 0.589 µM |  |
| CCCCN1CCC(N(Cc2ccccc2)C(=O)Nc2ccc(F)c(C(F)(F)F)c2)CC1 [A26] | 0.163 µM |  |
| Cc1cccc(CN(C(=O)Nc2cccc(C(F)(F)F)c2)C2CCN(Cc3ccccc3)CC2)n1 [B5] | 5.64 µM |  |
| CCOc1ccc(C(=O)NCC(=O)N2CCC(c3nc4ccccc4s3)CC2)cc1 [D33] | > 67.6 µM |  |
| COc1cccc(NC(=O)NC2CCN(Cc3ccccc3)CC2)c1 [B61] | > 67.6 µM |  |
| CCCC(C)N1CCC(N(Cc2ccccc2)C(=O)Nc2cc(C(F)(F)F)ccc2F)CC1 (centres unmarked) [A154] | 6.51 µM |  |
| CC(c1ccccn1)N1CCC(N(Cc2ccccc2)C(=O)Nc2cc(F)cc(C(F)(F)F)c2)CC1 (centres unmarked) [A145] | 4.57 µM |  |
| C#CCCCN1CCC(N(Cc2ccccc2NC(=O)CCl)C(=O)Nc2ccc(Cl)c(Cl)c2)CC1 [A252] | > 6.46 µM |  |
| CC1CC(N(C)C(=O)Nc2ccccn2)CCN1Cc1ccccc1 (centres unmarked) [B106] | > 71.5 µM |  |
| COCc1c(C(=O)N2CCN(C(C)C)CC2)cnn1-c1ncc(C)c(-c2cccs2)n1 [E21] |  | IC50 [1]: 49.2 µM |
| CC(c1cccc(O)c1)N1CCC(N(Cc2ccccc2)C(=O)Nc2cc(F)cc(C(F)(F)F)c2)CC1 (centres unmarked) [A218] | > 24 µM |  |
| 1-(1-((1H-Pyrazol-3-yl)Methyl)Piperidin-4-yl)-1-Benzyl-3-(3-(Trifluoromethyl)Phenyl)Urea [A180] | 19.8 µM |  |

| Compound | IC50 (read-out: TR-FRET IC50) | other results |
| --- | --- | --- |
| FC(F)(F)c1cccc(CN2CCN(Cc3nc4ccccc4[nH]3)CC2)c1 [B28] | > 46.3 µM |  |
| CCCN1CCC(NC(=O)Nc2ccc(C)c(Cl)c2)CC1 [B34] | > 55.5 µM |  |
| CCCC(C)N1CCC(N(Cc2ccccc2NC(=O)CCl)C(=O)Nc2cccc(C(F)(F)F)c2)CC1 (centres unmarked) [A38] | 0.208 µM |  |
| CCCC(C)N1CCC(N(Cc2ccccc2)C(=O)Nc2ccc(C3CCCCC3)cc2)CC1 (centres unmarked) [A110] | 2.21 µM |  |
| CCCC(C)N1CCC(N(Cc2ccccc2)C(=O)Nc2ccc(S(=O)(=O)Nc3ccc(OC)nn3)cc2)CC1 (centres unmarked) [A296] | > 83.4 µM |  |
| COc1cc(SC)ccc1C(=O)N1CCC(c2nc3ccccc3s2)CC1 [D21] | > 67.6 µM |  |
| CCCC(C)N1CCC(N(Cc2ccccc2)C(=O)Nc2cc(F)cc(C(F)(F)F)c2)CC1 (centres unmarked) [A6] | 0.058 µM |  |
| CCCC(C)N1CCC(N(Cc2ccccc2)C(=O)Nc2c(C)cc(Br)cc2C)CC1 (centres unmarked) [A265] | > 65.7 µM |  |
| CCCC(C)N1CCC(N(Cc2ccccc2)C(=O)Nc2ccc(F)c(F)c2F)CC1 (centres unmarked) [A286] | > 72.4 µM |  |
| COc1ccccc1NC(=O)N(CCCN1CCC(C)CC1)C1CCN(C(C)=O)CC1 [B96] | > 67.6 µM |  |
| C#CCCCN1CCC(N(Cc2ccccc2NC(=O)CCl)C(=O)Nc2cccc(C(F)(F)F)c2)CC1 [A253] | > 6.89 µM |  |
| CCCN1CCC(N(CCC(C)C)C(=O)Nc2cccc(C(F)(F)F)c2)CC1 [A130, 1-Isopentyl-1-(1-Propylpiperidin-4-yl)-3-(3-(Trifluoromethyl)Phenyl)Urea] | 2.96 µM |  |
| CCCC(C)N1CCC(N(Cc2ccccc2)C(=O)Nc2ccc(F)c(S(F)(F)(F)(F)F)c2)CC1 (centres unmarked) [A54] | 0.295 µM |  |
| CCCC(C)N1CCC(N(Cc2ccccc2)C(=O)Nc2cc(Cl)ccc2F)CC1 (centres unmarked) [A159] | 7.72 µM |  |
| CCN1CCN(C(=O)c2cnn(-c3ncc(C)c(-c4cccs4)n3)c2COC)CC1 [E20] |  | IC50 [1]: 48.2 µM |
| Cc1cccc(C(=O)NC2C(=O)Nc3c(c(C)nn3-c3ccccc3)C2c2ccc(C#N)cc2)c1 (centres unmarked) [F5] |  | IC50 [2]: 35.1 µM |
| CCCC(C)N1CCC(N(Cc2ccccc2)C(=O)Nc2ccc(-c3ccc(OC)cc3)cc2)CC1 (centres unmarked) [A164] | 8.9 µM |  |
| CCN(CC)CCN(CC)C(=O)c1cnn(-c2nccc(-c3cccs3)n2)c1C [E3] |  | IC50 [1]: 7.77 µM |
| O=C(Nc1cc(F)cc(C(F)(F)F)c1)N(Cc1ccccc1)C1CCN(C/C=C/c2ccccc2)CC1 [A143] | 4.27 µM |  |
| CCCC(C)N1CCC(N(Cc2ccccc2)C(=O)Nc2ccc(Cl)c(C(F)(F)F)c2)CC1 (centres unmarked) [A64] | 0.414 µM |  |
